Source: patent US8507476B2, “Substituted arylamide diazepinopyrimidone derivatives” (Sanofi, priority 2008, dated 2013)
Structures can show the parent of a compound that is named as a salt.

Legend:
GSK3β = GSK3β (Homo sapiens, UniProt P49841); assay: Inhibitory activity against GSK3β (33P-ATP phosphorylation of prephosphorylated GS1 peptide); assay type: biochemical; details: protocol 4: commercial GSK3beta (Millipore), 7.5 μM GS1 peptide, 10 μM ATP, 90 minutes at room temperature
Protocol: Inhibitory Activity of the Medicament of the Present Invention Against GSK3β Four different protocols can be used. In a first protocol: 7.5 μM of prephosphorylated GS1 peptide and 10 μM ATP (containing 300,000 cpm of ^33P-ATP) were incubated in 25 mM Tris-HCl, pH 7.5, 0.6 mM DTT, 6 mM MgCl2, 0.6 mM EGTA, 0.05 mg/ml BSA buffer for 1 hour at room temperature in the presence of GSK3beta (total reaction volume: 100 microliters). In a second protocol: 4.1 μM of prephosphorylated GS1 peptide and 42 μM ATP (containing 260,000 cpm ^33P-ATP) were incubated in 80 mM Mes-NaOH, pH 6.5, 1 mM Mg acetate, 0.5 mM EGTA, 5 mM 2-mercaptoethanol, 0.02% Tween 20, 10% glycerol buffer for 2 hours at room temperature in the presence of GSK3beta. In a third protocol: 7.5 μM of prephosphorylated GS1 peptide and 10 μM ATP (containing 300,000 cpm of ^33P-ATP) were incubated in 50 mM Hepes, pH 7.2, 1 mM DTT, 1 mM MgCl2, 1 mM EGTA, 0.01% Tween 20 buffer for one hour at room temperature in the presence of GSK3beta (total reaction volume: 100 microliters). In a fourth protocol: 7.5 μM of prephosphorylated GS1 peptide and 10 μM ATP (containing 300,000 cpm of ^33P-ATP) were incubated in 50 mM Hepes, pH 7.2, 1 mM DTT, 1 mM MgCl2, 1 mM EGTA, 0.01% Tween 20 buffer for 90 minutes at room temperature in the presence of commercial GSK3beta (Millipore) (total reaction volume: 100 microliters). Inhibitors were solubilised in DMSO (final solvent concentration in the reaction medium, 1%). The reaction was stopped with 100 microliters of a solution made of 25 g polyphosphoric acid (85% P2O5), 126 ml 85% H3PO4, H2O to 500 ml and then diluted to 1:100 before use. An aliquot of the reaction mixture was then transferred to Whatman P81 cation exchange filters and rinsed with the solution described above. Incorporated ^33P radioactivity was determined by liquid scintillation spectrometry. The phosphorylated GS-1 peptide had the following sequence: NH2-[…](P)EDEE-COOH. (Woodgett, J. R. (1989) Analytical Biochemistry 180, 237-241.

Chain of GSK3β (P49841 whole entry): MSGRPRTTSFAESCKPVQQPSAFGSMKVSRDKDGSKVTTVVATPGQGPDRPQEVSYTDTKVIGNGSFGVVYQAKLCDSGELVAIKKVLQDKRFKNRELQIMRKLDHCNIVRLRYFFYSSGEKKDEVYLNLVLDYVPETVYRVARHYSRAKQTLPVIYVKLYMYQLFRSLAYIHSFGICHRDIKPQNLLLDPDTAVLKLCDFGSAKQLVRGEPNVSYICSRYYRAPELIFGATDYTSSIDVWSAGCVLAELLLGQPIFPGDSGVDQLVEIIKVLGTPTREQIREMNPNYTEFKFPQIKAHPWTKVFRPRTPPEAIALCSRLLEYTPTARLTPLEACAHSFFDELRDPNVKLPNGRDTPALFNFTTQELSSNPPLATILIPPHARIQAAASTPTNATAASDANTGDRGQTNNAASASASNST

SMILES	melting point [°C]	IC50 (GSK3β) [nM]
COc1cc(Cl)ccc1C(=O)NC1CN(C2CCCC2)CCn2c1nc(-c1ccncn1)cc2=O (racemic) (as salt: HCl) [compound 7, (+/−)-4-Chloro-N-(7-cyclopentyl-4-oxo-2-pyrimidin-4-yl-4,5,6,7,8,9-hexahydro-1,4a,7-triaza-benzocyclohepten-9-yl)-2-methoxy-benzamide]	243 to 245	
COc1cc(Cl)ccc1C(=O)NC1CNCCn2c1nc(-c1ccncn1)cc2=O (single isomer, unassigned; (+)) [Compound No. 12, (+)-4-Chloro-2-methoxy-N-(4-oxo-2-pyrimidin-4-yl-4,5,6,7,8,9-hexahydro-1,4a,7-triaza-benzocyclohepten-9-yl)-benzamide]	240 to 242	0.3

The remaining compounds from weak to strong by IC50 (GSK3β), led by results:

melting point [°C]	IC50 (GSK3β) [nM]	SMILES
	46	COc1cc(Cl)ccc1C(=O)NC1CN(C2CCCC2)CCn2c1nc(-c1ccncn1)cc2=O (racemic) [compound 7, (+/−)-4-Chloro-N-(7-cyclopentyl-4-oxo-2-pyrimidin-4-yl-4,5,6,7,8,9-hexahydro-1,4a,7-triaza-benzocyclohepten-9-yl)-2-methoxy-benzamide]
210 to 212	12	CCOC(=O)N1CCn2c(nc(-c3ccncc3)cc2=O)C(NC(=O)c2ccc(F)cc2OC)C1 (racemic) [compound 35, (+/−)-9-(4-Fluoro-2-methoxy-benzoylamino)-4-oxo-2-pyridin-4-yl-5,6,8,9-tetrahydro-4H-1,4a,7-triaza-benzocycloheptene-7-carboxylic acid ethyl ester]
182 to 184	5	CCOC(=O)N1CCn2c(nc(-c3ccncn3)cc2=O)C(NC(=O)c2ccccc2OC)C1 (racemic) [compound 21, (+/−)-9-(2-Methoxy-benzoylamino)-4-oxo-2-pyrimidin-4-yl-5,6,8,9-tetrahydro-4H-1,4a,7-triaza-benzocycloheptene-7-carboxylic acid ethyl ester]
